Where two headings read alike, the source gives them in different places. Marks after values point to notes of the source that are not given here.
What was measured:
[1] = molecular target: T1, Human cannabinoid receptor CB2R (Homo sapiens, UniProt P34972); assay: Human cannabinoid receptor binding inhibition, [3H]CP55940, CB2R; conditions: membranes of CB2R-expressing CHO cells, [3H]CP55940 0.5 nM; read-out: Ki CB2 receptor
T1 construct: expressed in transfected cells; host or cells: CHO cells
Description: (§1) The crude membrane fractions as Human cannabinoid receptor were then prepared from the CB1R or CB2R-expressing CHO cells. Receptor binding assay was performed by incubating the membranes with each test compound and 38,000 dpm [^3H]CP55940 (at a final concentration of 0.5 nM: NEN Life Science Products) in the assay buffer (50 mM Tris-HCl; 1 mM EDTA, 3 mM MgCl2, pH 7.4) containing 0.5% bovine serum albumin (BSA) for 2 hr at 25° C. The incubation mixture was filtered through 1% polyethylenimine (PEI)-treated GF/C glass filter and washed with 50 mM Tris-HCl (pH 7.4) containing 0.1% BSA. The radioactivity was then counted with a liquid scintillation counter. […] Ki value of test compound is calculated by obtained IC50 value and Kd value of [^3H]CP55940.

[2] = molecular target: T2, human CB2R (Homo sapiens, UniProt P34972); assay: Cannabinoid receptor-mediated suppression of forskolin-stimulated cAMP synthesis, CB2R; type: cell-based
T2 construct: expressed in transfected cells; host or cells: CHO cells
T2 sequence (P34972 whole entry): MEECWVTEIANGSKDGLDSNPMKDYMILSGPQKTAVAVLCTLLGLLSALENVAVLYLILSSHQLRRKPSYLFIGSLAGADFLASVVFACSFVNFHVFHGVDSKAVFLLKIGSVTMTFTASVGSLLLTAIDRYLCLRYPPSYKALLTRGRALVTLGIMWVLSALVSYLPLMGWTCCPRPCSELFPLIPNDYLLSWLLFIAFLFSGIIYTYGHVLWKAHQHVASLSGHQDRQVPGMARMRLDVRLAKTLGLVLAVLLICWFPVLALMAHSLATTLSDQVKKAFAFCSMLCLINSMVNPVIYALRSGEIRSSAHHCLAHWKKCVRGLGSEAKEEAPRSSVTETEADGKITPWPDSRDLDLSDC

[3] = molecular target: T3, Human cannabinoid receptor CB1R (Homo sapiens, UniProt P21554); assay: Human cannabinoid receptor binding inhibition, [3H]CP55940, CB1R; conditions: membranes of CB1R-expressing CHO cells, [3H]CP55940 0.5 nM; read-out: Ki CB1 receptor
T3 construct: expressed in transfected cells; host or cells: CHO cells
T3 sequence (P21554 whole entry): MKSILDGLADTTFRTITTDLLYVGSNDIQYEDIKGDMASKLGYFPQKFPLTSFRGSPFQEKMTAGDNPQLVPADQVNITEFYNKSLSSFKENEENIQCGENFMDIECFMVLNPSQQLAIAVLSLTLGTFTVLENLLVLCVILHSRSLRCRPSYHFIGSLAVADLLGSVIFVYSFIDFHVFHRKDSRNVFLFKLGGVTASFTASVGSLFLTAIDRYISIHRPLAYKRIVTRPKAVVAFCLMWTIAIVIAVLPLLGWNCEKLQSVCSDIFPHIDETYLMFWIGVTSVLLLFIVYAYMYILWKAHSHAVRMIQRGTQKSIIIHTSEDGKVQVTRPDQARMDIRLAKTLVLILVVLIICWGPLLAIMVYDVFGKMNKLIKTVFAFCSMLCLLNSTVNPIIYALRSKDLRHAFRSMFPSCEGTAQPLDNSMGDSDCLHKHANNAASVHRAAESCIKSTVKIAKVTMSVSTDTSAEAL
Description: as §1

[4] = molecular target: T4, human CB1R (Homo sapiens, UniProt P21554); assay: cell-based; conditions: CHO cells expressing human CB1R
T4 construct: expressed in transfected cells; host or cells: CHO cells
T4 sequence (P21554 whole entry): as above

[5] = molecular target: T5, mouse CB2 receptor (Mus musculus, UniProt P47936); assay: Binding inhibitory activity to mouse cannabinoid receptors, spleen membrane fraction; design: species or system C57BL/6 J mice
T5 construct: The membrane fractions of mouse brain and spleen that abundantly express CB1 and CB2 receptor, respectively; from tissue; host or cells: mouse spleen membrane fraction (C57BL/6 J)
T5 sequence (P47936 whole entry): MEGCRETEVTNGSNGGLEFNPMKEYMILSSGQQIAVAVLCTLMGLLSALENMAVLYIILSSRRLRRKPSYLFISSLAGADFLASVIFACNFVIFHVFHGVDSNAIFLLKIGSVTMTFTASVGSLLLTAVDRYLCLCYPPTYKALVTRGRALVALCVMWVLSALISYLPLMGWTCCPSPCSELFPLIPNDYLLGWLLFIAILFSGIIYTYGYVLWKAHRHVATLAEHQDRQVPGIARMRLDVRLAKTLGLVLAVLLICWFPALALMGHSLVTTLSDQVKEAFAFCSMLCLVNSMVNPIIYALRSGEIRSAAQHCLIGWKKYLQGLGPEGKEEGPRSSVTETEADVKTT

[6] = molecular target: T6, mouse CB1 receptor (Mus musculus, UniProt P47746); assay: Binding inhibitory activity to mouse cannabinoid receptors, brain membrane fraction; design: species or system C57BL/6 J mice
T6 construct: The membrane fractions of mouse brain and spleen that abundantly express CB1 and CB2 receptor, respectively; from tissue; host or cells: mouse brain membrane fraction (C57BL/6 J)
T6 sequence (P47746 whole entry): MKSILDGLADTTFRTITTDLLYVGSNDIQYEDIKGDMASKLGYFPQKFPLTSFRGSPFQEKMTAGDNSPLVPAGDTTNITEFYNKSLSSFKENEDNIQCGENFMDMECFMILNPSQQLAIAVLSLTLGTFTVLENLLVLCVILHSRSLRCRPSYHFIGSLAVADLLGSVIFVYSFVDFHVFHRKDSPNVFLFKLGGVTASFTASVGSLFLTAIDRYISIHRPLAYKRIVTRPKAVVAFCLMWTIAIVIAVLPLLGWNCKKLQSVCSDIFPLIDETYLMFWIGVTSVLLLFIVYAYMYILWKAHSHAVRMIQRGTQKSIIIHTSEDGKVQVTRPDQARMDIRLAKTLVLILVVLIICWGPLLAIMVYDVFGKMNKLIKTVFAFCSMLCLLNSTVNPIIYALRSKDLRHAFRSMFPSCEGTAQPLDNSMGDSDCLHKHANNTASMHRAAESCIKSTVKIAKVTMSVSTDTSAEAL

[7] = system: compound 48/80-induced pruritus; assay: Inhibitory effect on compound 48/80-induced pruritus in ICR strain mice; conditions: for Antipruritic Effect (%): ICR mice, compound 48/80-induced scratching
[8] = forskolin-stimulated cAMP synthesis, read-out: CB1 receptor IC50
[9] = mouse spleen membrane fraction, read-out: Binding Assay: Ki Spleen (CB2)
[10] = CHO cells expressing human CB2R, read-out: cAMP Inhibition: IC50 CB2
[11] = read-out: cAMP Inhibition: IC50 CB1
[12] = mouse brain membrane fraction, read-out: Binding Assay: Ki Brain (CB1)
[13] = CHO cells expressing human CB2R, forskolin-stimulated cAMP synthesis, read-out: CB2 receptor IC50

T1 sequence (P34972 whole entry): as the sequence (P34972 whole entry) above

Cc1ccc(Oc2nc3ccccc3o2)c(=S)n1C
melting point: 245 to 247 °C

CCn1c(C)c(C)cc(C(=O)NCc2ccccc2)c1=O
melting point: 117 °C

CCCCn1c(C)c(C)cc(NC(=O)c2ccc(F)cc2)c1=O
melting point: 129 to 130 °C

CCCCn1c(C)c(C)cc(NC(=O)OCc2ccccc2)c1=O
melting point: 65 to 66 °C

CCCCn1c(C)c(C)cc(NC(=O)Nc2ccccc2Br)c1=O
melting point: 154 to 155 °C

COc1c(Oc2nc3ccccc3o2)c(C)c(C)n(Cc2ccccc2)c1=O
melting point: 197 to 198 °C

CCCCn1c(C)c(C)cc(Oc2nc3ccccc3o2)c1=S [Compound 2-004, 1-butyl-5,6-dimethyl-3-O-(benzoxazol-2-yl)-2-thiopyridone]
Ki [1]: 101 nM

CCCCn1c(C)c(C)cc(C(=O)NCCc2ccccc2)c1=O [Compound 3-010]
Ki [1]: 57 nM

CCCCn1c(C)c(I)cc(C(=O)NCCc2ccccc2)c1=O [Compound 3-038]
IC50 [2]: 28.6 nM | Ki [3]: 1250 nM | Ki [1]: 12 nM

Cc1c(C)c(C)n(CC2CCCCC2)c(=O)c1C(=O)NCc1ccccc1 [Compound 3-109]
IC50 [4, 8]: 2.7 nM

CCCCn1c2c(cc(C(=O)NCc3ccccc3)c1=O)CCCC2 [Compound 4-001]
IC50 [2]: 64.2 nM | Ki [3]: 2850 nM | Ki [1]: 28 nM

CCCCn1c2c(cc(C(=O)NCCc3ccccc3)c1=O)CCCC2 [Compound 4-002, 1-butyl-2-oxo-1,2,5,6,7,8-hexahydroquinoline-3-carboxylic acid phenethylamide]
Ki [3]: 746 nM | Ki [1]: 17 nM

CCCCn1c2c(cc(C(=O)NCCc3ccccc3)c1=O)CCC2 [Compound 4-052]
Ki [3]: 1500 nM | Ki [1]: 24 nM

CCCCn1c2c(cc(C(=O)NCCc3ccccc3)c1=O)CCCCCC2 [Compound 4-102]
IC50 [2]: 1.7 nM | Ki [3]: 908 nM | Ki [1]: 1.6 nM

CCCCn1c2c(cc(C(=O)NCCc3ccc(N)cc3)c1=O)CCCCCC2 [Compound 4-104]
IC50 [2]: 9.8 nM | Ki [3]: 54 nM | Ki [1]: 6 nM

CCCCn1c2c(cc(C(=O)NCCc3ccc(O)cc3)c1=O)CCCCCC2 [Compound 4-105]
Ki [3]: 91 nM | Ki [1]: 2.1 nM

COCCn1c2c(cc(C(=O)NCc3ccccc3)c1=O)CCCCCC2 [Compound 4-301]
Ki [3]: 1770 nM | Ki [1]: 8 nM

COCCn1c2c(cc(C(=O)NCCc3ccccc3)c1=O)CCCCCC2 [Compound 4-302]
Ki [3]: > 5000 nM | Ki [1]: 10 nM

O=C(NCc1ccccc1)c1cc2c(n(Cc3ccncc3)c1=O)CCCCCC2 [Compound 4-310]
Ki [3]: 512 nM | Ki [1]: 9 nM

CCCCn1c(C)c(C)cc(NC(=O)c2ccccc2Cl)c1=O [Compound 5-005]
Ki [1]: 16 nM

CCCCn1c(C)c(C)cc(NC(=O)c2ccccc2C)c1=O [Compound 5-006]
Ki [1]: 14 nM

CCCCn1c2c(cc(C(=O)NC3CCCCC3)c1=O)CCCCCC2 [Compound 10-035]
Ki [5, 9]: 0.1 nM | IC50 [2, 10]: 0.2 nM | IC50 [4, 11]: 29 nM | Ki [6, 12]: 12 nM | Antipruritic Effect (%) ([7]; 100 mg/kg (p.o.)): 93** %

CCCCn1c2c(cc(C(=O)NCC(C)(C)C)c1=O)CCCCCC2 [Compound 10-041]
IC50 [4, 8]: 3.5 nM

CCCCn1c2c(cc(C(=O)NC(=O)c3c(F)cccc3F)c1=O)CCCCCC2 [Compound 10-045]
IC50 [4, 8]: 1.2 nM

CCCCn1c2c(cc(C(=O)N[C@H](C)C3CCCCC3)c1=O)CCCCCC2 [Compound 10-050]
IC50 [4, 8]: 2 nM

CCCCn1c2c(cc(C(=O)N[C@H](CC)c3ccccc3)c1=O)CCCCCC2 [Compound 10-058]
IC50 [4, 8]: 2.4 nM

CCCCn1c2c(cc(C(=O)N[C@@H](CC)c3ccccc3)c1=O)CCCCCC2 [Compound 10-059]
IC50 [4, 8]: 6.1 nM

CCCCn1c2c(cc(C(=O)N[C@H](CF)c3ccccc3)c1=O)CCCCCC2 [Compound 10-089]
IC50 [4, 8]: 9.4 nM

CCCCn1c2c(cc(C(=O)Nc3ccccc3C(F)(F)F)c1=O)CCCCCC2 [Compound 10-103]
IC50 [4, 8]: 6.3 nM

CCCCn1c(C)c(C)cc(C(=O)NC(C)(C)c2ccccc2)c1=O [Compound 11-001]
IC50 [4, 8]: 1.2 nM

Cc1cc(C(=O)NC2CCCc3ccccc32)c(=O)n(CC2CCCCC2)c1C (stereo not shown) [Compound 11-011]
IC50 [4, 8]: 0.6 nM

CCC(C)CNC(=O)c1cc(C)c(C)n(CC2CCCCC2)c1=O (stereo not shown) [Compound 11-012]
IC50 [4, 8]: 7.8 nM

Cc1cc(C(=O)NCC(C)(C)C)c(=O)n(CC2CCCCC2)c1C [Compound 11-013]
IC50 [4, 8]: 7.5 nM

CCCCn1c2c(cc(NC(=O)c3ccccc3Cl)c1=O)CCCCCC2 [Compound 13-006]
IC50 [4, 8]: 1.6 nM

CCCCn1c2c(cc(C(=O)NC(C)(C)c3ccccc3)c1=O)[C@@H]1CC[C@H]2C1 [Compound 13-023]
IC50 [4, 8]: 0.3 nM

CCCCn1c(-c2ccccc2)c(C)cc(C(=O)NC(C)(C)c2ccccc2)c1=O [Compound 13-030]
IC50 [4, 8]: 0.7 nM

CCCCn1c2c(cc(C(=O)NC(C)(C)c3ccccc3)c1=O)COCC2 [Compound 13-044]
IC50 [4, 8]: 1.8 nM

CCSC(=O)N1CCSC1=Nc1ccccc1C(C)C [Compound I-6]
Ki [3]: > 5000 nM

CCSC(=O)N1CC(C)(C)CSC1=Nc1ccc(C)cc1C [Compound I-39]
IC50 [2, 13]: 13.7 nM

CCSC(=O)N1CC(C)(C)CSC1=Nc1ccc([N+](=O)[O-])cc1C(C)C [Compound I-46]
IC50 [2, 13]: 5.4 nM | melting point: 119 to 120 °C

CCCc1ccccc1N=C1SCC(C)(C)CN1C(=O)SC [Compound I-49]
IC50 [2, 13]: 2.2 nM | melting point: 64 to 66 °C

CSC(=O)N1CC(C)(C)CSC1=Nc1ccccc1C(C)C [Compound I-50]
melting point: 95 to 96 °C

CCC(C)c1ccccc1N=C1SCC(C)(C)CN1C(=O)SC (stereo not shown) [Compound I-51]
melting point: 53 to 56 °C

CSC(=O)N1CC(C)(C)CSC1=Nc1cccc(C(C)C)c1 [Compound I-52]
melting point: 88 to 90 °C

CCc1ccccc1N=C1SCC(C)(C)CN1C(=S)SC [Compound I-56]
melting point: 107 to 109 °C

COc1ccccc1N=C1SCC(C)(C)CN1C(=S)SC [Compound I-60]
melting point: 128 to 130 °C

CSC(=S)N1CC(C)(C)CSC1=Nc1ccccc1SC [Compound I-62]
melting point: 137 to 139 °C

CSC(=S)N1CC(C)(C)CSC1=Nc1ccc(C)c(C)c1 [Compound I-74]
IC50 [2, 13]: 1.6 nM | melting point: 126 to 128 °C

CCSC(=S)N1CC(C)(C)CSC1=Nc1ccccc1C(C)C [Compound I-84]
melting point: 68 to 70 °C

CCNC(=O)N1CC(C)(C)CSC1=Nc1ccccc1C(C)C [Compound I-92]
IC50 [2, 13]: < 0.2 nM | melting point: 52 to 53 °C

COCC(=O)N1CC(C)(C)CSC1=Nc1ccccc1C(C)C [Compound I-93]
IC50 [2, 13]: 0.6 nM | melting point: 76 to 78 °C

CSC(=S)N1CC2(CCCCC2)CSC1=Nc1ccccc1C(C)C [Compound I-270]
Ki [5, 9]: 1.2 nM | IC50 [2, 10]: 7.9 nM | IC50 [4, 11]: 68.7 nM | Ki [6, 12]: 80 nM | Antipruritic Effect (%) ([7]; 100 mg/kg (p.o.)): 98** %

CC(C)OC(=O)CSC(=S)N1CC(C)(C)CSC1=Nc1ccccc1C(C)C [II-13]
melting point: 95 to 96 °C

C=CCSC(=S)N1CC2(CCCCC2)CSC1=Nc1ccccc1OC [II-86]
Ki [5]: 1.1 nM | IC50 [2, 10]: 1 nM | melting point: 108.5 to 109.5 °C | IC50 [4, 11]: 16.8 nM | Ki [6]: 12 nM | Antipruritic Effect (%) ([7]; 100 mg/kg (p.o.)): 98** %

C=CCSC(=S)N1CC2(CCCCC2)CSC1=Nc1ccc(CC)cc1 [II-88]
melting point: 98 to 100 °C

C=CCSC(=S)N1CC2(CCOCC2)CSC1=Nc1ccccc1C(C)C [II-92]
melting point: 73.5 to 75 °C

CSC(=S)N1CC2(CCOCC2)CSC1=Nc1ccccc1C(C)C [II-93]
melting point: 127 to 128 °C

Cc1c(C(=O)c2cccc3ccccc23)c2cccc3c2n1[C@H](CN1CCOCC1)CO3 [WIN55212-2, reference compound]
Ki [5, 9]: 6 nM | Antipruritic Effect (%) ([7]; 100 mg/kg (p.o.)): 70* %

CCCCCc1cc(O)c2c(c1)OC(C)(C)[C@@H]1CCC(C)=C[C@@H]21 [Δ^9-tetrahydrocannabinol, delta-9-tetrahydrocannabinol, reference compound]
Ki [5, 9]: 9.2 nM | Antipruritic Effect (%) ([7]; 10 mg/kg (i.p.)): 98**# % | inhibitory effect on compound 48/80-induced pruritus (number of scratching vs vehicle group) ([7]; female ICR mice, oral administration once, scratching counted for 30 min): inhibited compound 48/80-induced pruritus
